Each structure is given as a SMILES string.

What all share (type): in vivo, human
A short description of series [1]: Safety assessment in the same trial. The note with it: oral BDP 2 mg four times daily for 50 days plus prednisone induction vs placebo. The source says: (§1) Safety was primarily assessed based on the following: 1) cumulative systemic corticosteroid exposure, 2) the incidence and degree of HPA axis suppression in patients who had not experienced treatment failure by study day 50, 3) rates of treatment-emergent adverse events, and 4) the overall survival rate 200 days post-transplant.
(§2) The primary analysis of the primary and secondary efficacy endpoints was based on the intent-to-treat principle. The analysis of the primary efficacy endpoint was based on the Kaplan-Meier method and log-rank test stratified by source of allograft. Hypothesis tests of the primary and secondary efficacy endpoints were performed using a two-sided significance level of 0.05. No adjustments were made to the significance level for inferential tests of the secondary efficacy endpoints. All patients who received at least one dose of BDP or placebo were included in the assessment of safety.

In series [2] the test system is graft versus leukemia effect (GVL). In words: Overall survival 200 days post-transplant in the same trial (Kaplan-Meier, Cox proportional hazards models). As to the method:
(§3) A randomized, prospective, double blind, placebo controlled, multi-center pivotal trial was conducted to evaluate beclomethasone dipropionate (BDP) as a treatment of cancer by enhancing the graft versus leukemia effect (GVL) while controlling graft versus host disease (GVHD) following hematopoietic stem cell transplant in blood-borne cancer patients. The trial was divided into two phases, the purpose was to monitor short term effectiveness of BDP to control graft versus host disease in the first phase and the second phase was to assess the effect of the drug treatment on long term survival due to recurrence of hematologic malignancy or other causes of death.
(§4) To minimize the exposure of patients to long term exposure to systemic corticosteroids (prednisone or prednisolone), which are used as the standard of care to prevent or treat symptoms of graft versus host disease in conjunction with other immunosuppressive drugs, patients were treated with an oral formulation of BDP. BDP was formulated as two separate oral dosage forms an immediate release (IR) tablet and an enteric coated (EC) tablet. 129 patients were enrolled and 67 patients were randomized to placebo and 62 to BDP, Patients were at least 10 days post allogeneic hematopoietic cell transplantation, had gastrointestinal symptoms consistent with Grade II GVHD, and had endoscopic evidence of GVHD. The diagnosis of GVHD was confirmed by biopsy of the intestine (esophagus, stomach, small intestine, or colon) or skin. After being diagnosed with GVHD, patients were started on standard prednisone therapy. Patients were administered 2 mg/kg/day or 1 mg/kg/day for 10 days as a starting dose. After 10 days at this initial dose, prednisone was tapered over 7 days, after which the patients were maintained on a maintenance physiologic replacement dose of prednisone of 0.0625 mg/kg/day or 0.125 mg/kg/day. Concurrently, patients received BDP at a dose of 2 mg four times daily, for a total dose of 8 mg, or placebo for a maximum of 50 days.
as §1, §2
Based on a univariate time-dependent Cox proportional hazards model, the risk of mortality during this period was 68% lower following the initiation of treatment with BDP when compared to no treatment (hazard ratio 0.32; 95% CI: 0.12, 0.87; p=0.0252). A multivariate Cox model was used to evaluate the effect of BDP while simultaneously accounting for selected competing causes of mortality after hematopoietic cell transplant. The competing causes of mortality included the subject's age and gender, intensity of the conditioning regimen (myeloablative, non-myeloablative), primary diagnosis, transplant source (bone marrow, peripheral blood stem cells), and degree of HLA match, with greater benefit seen in the patients receiving non-myeloabaltive pre-conditioning.
The hazard ratio for each variable was estimated from a multivariate Cox proportional hazards model.

Series [3] concerns graft versus host disease (GVHD). In words: Randomized, double blind, placebo controlled trial of oral BDP: time to treatment failure (GVHD) through study days 50 and 80. How it is done:
as §3, §4
Patients were monitored at clinic visits for evidence of increase in symptoms of GVHD (primary treatment failure). The primary efficacy endpoint was the time to treatment failure through study day 50. Treatment failure was defined as a worsening or recurrence of GVHD of such degree as to require an increase in immunosuppressive therapy. A subject was defined as a treatment failure if the patient required prednisone or equivalent IV corticosteroids at doses higher than that specified in the protocol, in response to uncontrolled signs or symptoms of GVHD; or required additional immunosuppressant medications other than those permitted by the protocol in response to uncontrolled signs or symptoms of GVHD. The time to treatment failure was calculated as the number of days elapsed between the randomization date and the date on which the subject was first identified as a treatment failure by the investigator.
Secondary efficacy endpoints included: 1) the time to treatment failure through study day 80, 2) the proportion of subjects who experienced treatment failure by study days 10, 30, 50, 60, and 80, and 3) Karnofsky performance status scores.
as §2
The hazard ratio was estimated from a univariate Cox proportional hazards model. Placebo serves as the reference group.

Setting [4] is: Kaplan-Meier estimate, fraction, all randomized subjects.

Turning to `CCC(=O)OCC(=O)[C@@]1(OC(=O)CC)[C@@H](C)C[C@H]2[C@@H]3CCC4=CC(=O)C=C[C@]4(C)[C@@]3(Cl)[C@@H](O)C[C@@]21C` [BDP, beclomethasone dipropionate], in series [1], the Clinically significant toxicity is reported as “without an increase in clinically significant toxicity”. Besides, the “Relative reduction in mortality at 200 days post transplant” value in series [2] (200 days post transplant) stood at 69%. Also, in series [2] (200 days post-transplant), the “Deaths with relapse of the underlying malignancy as primary cause, number of patients” value is reported as 2 patients and the “Deaths with relapse of the underlying malignancy as primary cause, share of group” value is 3%. The “Hazard ratio, mortality, univariate time-dependent Cox model” value in series [2] (200 days post-transplant, BDP vs no treatment) amounted to 0.32. The “Overall survival rate 200 days post-transplant” value in series [2] (Kaplan-Meier estimate, fraction) is reported as 0.91. The “Coefficient (bi), multivariate proportional hazards model for overall survival 200 days post-transplant” value in series [2] (safety population) is −1.155. The “HR [exp(bi)], duration of overall survival 200 days post-transplant, multivariate Cox model” value in series [2] (safety population, adjusted for competing causes of mortality) turned out to be 0.32. Further, the “Lowering of risk of mortality following initiation of BDP compared to no treatment” value in series [2] (univariate time-dependent Cox proportional hazards model, 200 days post-transplant) is 68%. For the same molecule, the “Reduction of risk of treatment failure relative to placebo, 50-day study treatment period” value in series [3] (50-day study treatment period) is listed as 37%. Further, in series [3] (80-day study period), the “Increase of median time to treatment failure compared to placebo” value is “more than 28 days” and the “Reduction of risk of treatment failure relative to placebo, entire 80-day study period” value is listed as 44%. In series [3] (setting [4]), the “Treatment failure rate by Study Day 50” value is on record as 0.31 and the “Treatment failure rate by Study Day 80” value is recorded as 0.39. For the same molecule, in series [3] (all randomized subjects), the “Median time to treatment failure (95% CI), through Study Day 50” value is given as “Not achieved” and the “Median time to treatment failure (95% CI), through Study Day 80” value is given as “Not achieved”. Also, the “Patients who met the treatment failure endpoint during the first 10 days of study treatment” value in series [3] (first 10 days, all patients on high-dose prednisone) is listed as “Eight”. For the same molecule, in series [3] (intent-to-treat, BDP N = 62, 2 mg four times daily oral, with prednisone induction and taper), the “Number with treatment failure, through Study Day 50” value was 18. Also, the “Number with treatment failure, through Study Day 80” value in series [3] (intent-to-treat, BDP N = 62, includes 30-day post-treatment observation period) is 22. The “Share of the total number of treatment failures that occurred within the first 10 days of randomization” value in series [3] (prior to the prednisone taper) is on record as 44%. In series [3] (study day 50), the “Cumulative treatment failure rate by study day 50” value worked out at 31%. In series [3] (study day 80), the “Cumulative treatment failure rate by study day 80” value was 39%.

These data come from patent US20090143328A1, “Method of Treating Cancer by Administration of Topical Active Corticosteroids” (priority 2001, published 2009).
